# Data taken from PubChem BioAssay (NCI).
#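 Cultured in 96-well plates, cells were exposed to test compound for 48 hours across five concentrations. GI50 = concentration required for 50% inhibition of growth. TGI marks complete inhibition of growth.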 *1 amine or outer side, *2 acyl side, *3 side chain or, on linkers, in order; H or OH if unused. Where a SMILES comes first, the peptide text is derived from it. Bridges are numbered along the chain shown (N, C = ends). [ ]: non-standard residue; d: D form. The star is where a group is joined. X19 = O=C([C@H](N[*:1])c1ccc(O[C@H]2O[C@@H](CO)[C@@H](O)[C@@H](O)[C@H]2O[C@@H]2O[C@H](CO)[C@H](O)[C@H](O)[C@@H]2O)cc1)[*:2]; X18 = NC(=O)[C@@H](O[*:3])[C@H](N[*:1])C(=O)[*:2]; X20 = O=C([C@H](N[*:1])c1ccc(O)c(Cl)c1)[*:2]; d(aThr) = C[C@@H](O)[C@@H](N)C(=O)O; dHpg = N[C@@H](C(=O)O)c1ccc(O)cc1; X17 = CC(C)C/C=C/C=C/C(=O)*; dOrn = NCCC[C@@H](N)C(=O)O
# What was measured:
# Assay in all cases: DTP human tumour cell line panel, 48 h
# MDA-MB-435 = tested on: MDA-MB-435
# IGROV1 ovarian = tested on: IGROV1 ovarian
# A549 NSCLC = tested on: A549 NSCLC
# MCF7 breast = tested on: MCF7 breast
# HCT-116 colon = tested on: HCT-116 colon
# OVCAR-3 ovarian = tested on: OVCAR-3 ovarian
# HL-60(TB) leukemia = tested on: HL-60(TB) leukemia
# NCI-H460 lung = tested on: NCI-H460 lung
SMILES,GI50 (MDA-MB-435),TGI (MDA-MB-435),GI50 (IGROV1 ovarian),TGI (IGROV1 ovarian),GI50 (A549 NSCLC),TGI (A549 NSCLC),GI50 (MCF7 breast),TGI (MCF7 breast),GI50 (HCT-116 colon),TGI (HCT-116 colon),GI50 (OVCAR-3 ovarian),TGI (OVCAR-3 ovarian),GI50 (HL-60(TB) leukemia),TGI (HL-60(TB) leukemia),GI50 (NCI-H460 lung),TGI (NCI-H460 lung)
O=C(Nc1ccc(Cl)cc1)c1cc2cc(F)ccc2cc1O,1.96 µM,8.8 µM,2.28 µM,> 100 µM,2.5 µM,> 100 µM,1.54 µM,6.51 µM,0.963 µM,6.66 µM,1.09 µM,> 100 µM,1.22 µM,6.78 µM,0.882 µM,> 100 µM
COc1ccc(C(=O)C(Br)C(Br)C(=O)O)cc1 (stereo not drawn),–,> 100 µM,–,> 100 µM,–,> 100 µM,–,> 100 µM,–,44.9 µM,–,57.4 µM,–,–,–,> 100 µM
CC1(C)CCC2(C(=O)O)CC[C@]3(C)C(=CCC4C5(C)CC[C@H](OC6OC(C(=O)O)C(O)C(OC7OC(CO)C(O)C(O)C7O)C6OC6OC(CO)C(O)C(O)C6O)C(C)(C)C5CCC43C)C2C1 (stereo partly drawn),> 100 µM,> 100 µM,> 100 µM,> 100 µM,> 100 µM,> 100 µM,53.5 µM,> 100 µM,> 100 µM,> 100 µM,> 100 µM,> 100 µM,–,–,> 100 µM,> 100 µM
Cc1cccc2c1NC(=O)[C@@]21[C@H](C(=O)c2ccccc2)[C@]2(C(=O)Nc3ccccc32)[C@H]2CCCN21,94.7 µM,> 100 µM,–,–,58.9 µM,> 100 µM,14.3 µM,> 100 µM,15.2 µM,46.5 µM,15.5 µM,> 100 µM,56.8 µM,> 100 µM,24.6 µM,> 100 µM
NC(=O)c1cc(Cl)ccc1NC(=O)c1ccccc1-c1ccccc1,–,–,1.55 µM,> 100 µM,1.16 µM,> 100 µM,0.457 µM,> 100 µM,0.43 µM,65.1 µM,0.328 µM,2.59 µM,0.284 µM,20.4 µM,0.453 µM,28.7 µM
O=C1CCC2=C3C4CCCCC4C(=O)C4CCCC(OC2C1)C34 (stereo not drawn),0.516 µM,2.08 µM,1.64 µM,6.15 µM,2.57 µM,13.2 µM,1.21 µM,> 100 µM,0.316 µM,> 31.1 µM,0.428 µM,2.73 µM,0.17 µM,0.998 µM,0.87 µM,4.57 µM
CC1(C)N=C(/C=N/O)C(C)(C)N1O,–,> 100 µM,–,> 100 µM,–,> 100 µM,–,> 100 µM,–,> 100 µM,–,> 100 µM,–,> 100 µM,–,> 100 µM
CCC(c1ccc(OC)cc1)C(CC)c1ccc(O)c(CN2CCCC2)c1 (stereo not drawn),2.01 µM,4.76 µM,8.63 µM,23.6 µM,3.73 µM,13.8 µM,2.74 µM,6.47 µM,3.44 µM,12.5 µM,6.15 µM,19.5 µM,2.14 µM,4.76 µM,3.41 µM,11.6 µM
CNC(=O)c1cncc(/C=C/c2c(C)cccc2C)c1,> 25 µM,> 25 µM,12.9 µM,> 25 µM,> 25 µM,> 25 µM,> 25 µM,> 25 µM,> 25 µM,> 25 µM,> 25 µM,> 25 µM,> 25 µM,> 25 µM,> 25 µM,> 25 µM
CC1=C(C(=O)NCC(C)O)CC(C(=O)NCC(C)O)=C(C)N1 (stereo not drawn),–,> 100 µM,–,> 100 µM,–,> 100 µM,–,> 100 µM,–,> 100 µM,–,> 100 µM,–,> 100 µM,–,> 100 µM
CC(C)(C)N1CC(OC(N)=O)C1,> 100 µM,> 100 µM,> 100 µM,> 100 µM,> 100 µM,> 100 µM,> 100 µM,> 100 µM,> 100 µM,> 100 µM,> 100 µM,> 100 µM,> 100 µM,> 100 µM,> 100 µM,> 100 µM
C[C@@H](Oc1cc(NS(=O)(=O)N2CCC2)nc(SCc2cccc(F)c2F)n1)[C@@H](O)CO,> 100 µM,> 100 µM,> 100 µM,> 100 µM,> 100 µM,> 100 µM,> 100 µM,> 100 µM,> 100 µM,> 100 µM,> 100 µM,> 100 µM,> 100 µM,> 100 µM,> 100 µM,> 100 µM
CC(C)C/C=C/C=C/C(=O)N[C@@H](CC(N)=O)C(=O)N[C@@H]1C(=O)N[C@H](c2ccc(O)cc2)C(=O)N[C@H](CCCN)C(=O)N[C@H]([C@@H](C)O)C(=O)N[C@H](c2ccc(O)cc2)C(=O)N[C@H](c2ccc(O)cc2)C(=O)N[C@H]([C@H](C)O)C(=O)N[C@H](Cc2ccccc2)C(=O)N[C@H](CCCN)C(=O)N[C@H](c2ccc(O[C@H]3O[C@@H](CO)[C@@H](O)[C@@H](O)[C@H]3O[C@@H]3O[C@H](CO)[C@H](O)[C@H](O)[C@@H]3O)cc2)C(=O)N[C@H]([C@H](C)O)C(=O)N[C@H](c2ccc(O)cc2)C(=O)NCC(=O)N[C@H](CC(C)C)C(=O)N[C@H](C)C(=O)N[C@H](c2ccc(O)c(Cl)c2)C(=O)O[C@@H]1C(N)=O (X17-N[X18][dHpg][dOrn][d(aThr)][dHpg][dHpg][dT][dF][dOrn][X19][dT][dHpg]G[dL][dA][X20]; ester 2-C),26 µM,72.8 µM,> 100 µM,> 100 µM,> 100 µM,> 100 µM,31.9 µM,94.7 µM,32.9 µM,> 100 µM,46.5 µM,> 100 µM,> 100 µM,> 100 µM,23.5 µM,66.9 µM
N=C1C(c2nc3ccccc3s2)=C(O)CN1c1ccc(Cl)cc1Cl,16.5 µM,> 100 µM,19.4 µM,46.9 µM,11.6 µM,35.6 µM,41.2 µM,> 100 µM,4.95 µM,25.6 µM,18.7 µM,> 100 µM,41.9 µM,> 100 µM,33.4 µM,> 100 µM
